ChEMBL document CHEMBL1143687, “Synthesis of analogues of a flexible thiopyrylium photosensitizer for purging blood-borne pathogens and binding mode and affinity studies of their complexes with DNA” (Bioorg Med Chem, 2007)

Legend:
[1] = Partition coefficient, log P by shake flask method; type: physicochemical; details: octanol/water
[2] = Binding affinity to M13mp19 DNA by spectrophotometric titration method
DNA [3] = experiment: Binding affinity to calf thymus DNA by spectrophotometric titration method; type: nucleic-acid assay; details: Bos taurus
DNA [4] = experiment: Binding affinity to calf thymus DNA by isothermal titration calorimetry; type: nucleic-acid assay; details: Bos taurus
Escherichia coli = experiment: Binding affinity to pUC19 DNA assessed as drug concentration to induce plasmid re-supercoiling by topoisomerase 1 DNA unwinding assay

Structure (SMILES) | logP [1] | Kb [2] | Kb (DNA [3]) | Kb (DNA [4]) | Kb (Escherichia coli)
CC(C)c1cc(-c2ccc(N(C)C)cc2)cc(-c2ccc(N(C)C)cc2)[s+]1 | 0.23 | 1.17 10^4/M | – | – | –
CN(C)c1ccc(-c2cc(-c3ccc(N(C)C)cc3)[s+]c(C(C)(C)C)c2)cc1 | 1.51 | 0.91 10^4/M | 10.1 10^4/M | 4.2 10^5/M | 23 10^6/M
CN(C)c1ccc(-c2cc(-c3ccc(N(C)C)cc3)[se+]c(C(C)(C)C)c2)cc1 | 1.57 | 2.5 10^4/M | 8.7 10^4/M | 3.9 10^5/M | 22 10^6/M

Further lines, results first:

logP [1] | Kb [2] | Kb (DNA [3]) | Kb (DNA [4]) | Kb (Escherichia coli) | Structure (SMILES)
1.63 | 7.58 10^4/M | – | – | – | CCCCc1cc(-c2ccc(N(C)C)cc2)cc(-c2ccc(N(C)C)cc2)[s+]1
0.13 | 1.8 10^4/M | – | – | – | CCc1cc(-c2ccc(N(C)C)cc2)cc(-c2ccc(N(C)C)cc2)[s+]1
0.82 | 3.47 10^4/M | 5 10^4/M | 2.4 10^5/M | 45 10^6/M | CCCc1cc(-c2ccc(N(C)C)cc2)cc(-c2ccc(N(C)C)cc2)[s+]1
0.6 | 6.1 10^4/M | 5.2 10^4/M | 1.7 10^5/M | 66 10^6/M | Cc1cc(-c2ccc(N(C)C)cc2)cc(-c2ccc(N(C)C)cc2)[s+]1
